ChEMBL document CHEMBL4049386, “Discovery of an Inhibitor of the Proteasome Subunit Rpn11” (J Med Chem, 2017)
Activity calls are given as the source filed them. No cut-off for these calls is given here.

Key:
A549 = assay: Antiproliferative activity against human A549 cells after 72 hrs by Cell Titer-Glo assay; type: functional, cell-based; conditions: A549, 72 h
HEK-293T = assay: Antiproliferative activity against human 293T cells after 72 hrs by Cell Titer-Glo assay; type: functional, cell-based
[1] = Aqueous solubility of the compound; type: physicochemical; conditions: buffer
[2] = biological target: 72 kDa type IV collagenase (Homo sapiens, UniProt P08253); assay: Inhibition of recombinant human MMP2 catalytic domain (Tyr110 to Asp452 residues) expressed in yeast using Mca-Pro-Leu-Gly-Leu-Dpa-Ala-Arg-NH2.AcOH as substrate preincubated for 30 mins followed by substrate addition measured every minute for 20 mins by fluorescence assay
Sequence of 72 kDa type IV collagenase (P08253 whole entry, the tested form may be a part): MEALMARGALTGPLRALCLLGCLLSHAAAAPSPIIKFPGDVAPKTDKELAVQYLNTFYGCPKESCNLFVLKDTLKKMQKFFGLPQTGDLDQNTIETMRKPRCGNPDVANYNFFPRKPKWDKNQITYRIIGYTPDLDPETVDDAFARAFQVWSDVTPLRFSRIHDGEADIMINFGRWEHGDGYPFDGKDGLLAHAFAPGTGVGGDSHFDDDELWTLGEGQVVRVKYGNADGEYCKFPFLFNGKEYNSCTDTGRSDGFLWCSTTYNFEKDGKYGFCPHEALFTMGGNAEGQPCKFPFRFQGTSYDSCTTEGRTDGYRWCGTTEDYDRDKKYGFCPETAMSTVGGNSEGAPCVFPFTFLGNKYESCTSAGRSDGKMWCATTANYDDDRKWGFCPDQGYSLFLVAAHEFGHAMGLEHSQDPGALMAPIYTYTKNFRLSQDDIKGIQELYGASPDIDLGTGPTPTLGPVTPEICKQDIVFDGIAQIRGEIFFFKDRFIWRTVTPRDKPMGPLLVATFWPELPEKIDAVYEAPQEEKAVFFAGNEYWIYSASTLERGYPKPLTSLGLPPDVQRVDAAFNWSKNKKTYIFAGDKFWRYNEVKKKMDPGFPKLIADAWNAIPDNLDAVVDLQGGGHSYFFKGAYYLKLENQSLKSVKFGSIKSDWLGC

[3] = biological target: T1, 26S proteasome non-ATPase regulatory subunit 14 (Homo sapiens, UniProt O00487); assay: Inhibition of 26S proteasome regulatory subunit RPN11 deubiquitinating activity in human erythrocytes using Ub4-pepOG protein substrate preincubated for 1 hr followed by substrate addition measured after 80 mins by fluorescence polarization assay
T1 sequence (O00487 whole entry): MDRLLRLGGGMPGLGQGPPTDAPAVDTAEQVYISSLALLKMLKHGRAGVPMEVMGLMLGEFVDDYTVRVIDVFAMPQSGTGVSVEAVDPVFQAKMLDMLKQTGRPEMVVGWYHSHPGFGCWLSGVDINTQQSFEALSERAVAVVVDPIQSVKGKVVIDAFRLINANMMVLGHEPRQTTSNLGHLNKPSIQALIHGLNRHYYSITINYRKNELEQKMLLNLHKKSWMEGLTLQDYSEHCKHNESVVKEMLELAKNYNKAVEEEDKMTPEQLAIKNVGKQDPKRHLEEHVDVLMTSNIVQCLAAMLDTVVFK

Histone deacetylase 1 = Histone deacetylase 1 (Homo sapiens, UniProt Q13547); assay: Inhibition of full length recombinant human C-terminal His/FLAG-tagged HDAC1 expressed in baculovirus expression system using substrate 3 preincubated for 5 mins followed by substrate addition measured after 30 mins by fluorescence assay
Sequence of Histone deacetylase 1 (Q13547 whole entry): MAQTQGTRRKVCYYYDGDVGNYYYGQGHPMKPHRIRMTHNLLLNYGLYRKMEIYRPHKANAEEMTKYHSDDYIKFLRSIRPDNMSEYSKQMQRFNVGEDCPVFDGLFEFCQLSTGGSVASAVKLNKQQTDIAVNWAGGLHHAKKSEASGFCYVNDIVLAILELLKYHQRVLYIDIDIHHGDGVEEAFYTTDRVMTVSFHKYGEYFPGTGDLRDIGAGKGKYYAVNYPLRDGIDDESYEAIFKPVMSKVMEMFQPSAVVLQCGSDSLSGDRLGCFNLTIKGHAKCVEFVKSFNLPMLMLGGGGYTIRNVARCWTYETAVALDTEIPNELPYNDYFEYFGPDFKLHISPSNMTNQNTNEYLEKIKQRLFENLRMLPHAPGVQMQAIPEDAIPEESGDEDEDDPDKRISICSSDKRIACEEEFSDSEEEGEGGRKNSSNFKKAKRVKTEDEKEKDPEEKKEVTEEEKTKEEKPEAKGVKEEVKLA

[4] = biological target: T2, Protein deacetylase HDAC6 (Homo sapiens, UniProt Q9UBN7); assay: Inhibition of full length recombinant human N-terminal GST-tagged HDAC6 expressed in baculovirus expression system using substrate 3 preincubated for 5 mins followed by substrate addition measured after 30 mins by fluorescence assay
T2 sequence (Q9UBN7 whole entry): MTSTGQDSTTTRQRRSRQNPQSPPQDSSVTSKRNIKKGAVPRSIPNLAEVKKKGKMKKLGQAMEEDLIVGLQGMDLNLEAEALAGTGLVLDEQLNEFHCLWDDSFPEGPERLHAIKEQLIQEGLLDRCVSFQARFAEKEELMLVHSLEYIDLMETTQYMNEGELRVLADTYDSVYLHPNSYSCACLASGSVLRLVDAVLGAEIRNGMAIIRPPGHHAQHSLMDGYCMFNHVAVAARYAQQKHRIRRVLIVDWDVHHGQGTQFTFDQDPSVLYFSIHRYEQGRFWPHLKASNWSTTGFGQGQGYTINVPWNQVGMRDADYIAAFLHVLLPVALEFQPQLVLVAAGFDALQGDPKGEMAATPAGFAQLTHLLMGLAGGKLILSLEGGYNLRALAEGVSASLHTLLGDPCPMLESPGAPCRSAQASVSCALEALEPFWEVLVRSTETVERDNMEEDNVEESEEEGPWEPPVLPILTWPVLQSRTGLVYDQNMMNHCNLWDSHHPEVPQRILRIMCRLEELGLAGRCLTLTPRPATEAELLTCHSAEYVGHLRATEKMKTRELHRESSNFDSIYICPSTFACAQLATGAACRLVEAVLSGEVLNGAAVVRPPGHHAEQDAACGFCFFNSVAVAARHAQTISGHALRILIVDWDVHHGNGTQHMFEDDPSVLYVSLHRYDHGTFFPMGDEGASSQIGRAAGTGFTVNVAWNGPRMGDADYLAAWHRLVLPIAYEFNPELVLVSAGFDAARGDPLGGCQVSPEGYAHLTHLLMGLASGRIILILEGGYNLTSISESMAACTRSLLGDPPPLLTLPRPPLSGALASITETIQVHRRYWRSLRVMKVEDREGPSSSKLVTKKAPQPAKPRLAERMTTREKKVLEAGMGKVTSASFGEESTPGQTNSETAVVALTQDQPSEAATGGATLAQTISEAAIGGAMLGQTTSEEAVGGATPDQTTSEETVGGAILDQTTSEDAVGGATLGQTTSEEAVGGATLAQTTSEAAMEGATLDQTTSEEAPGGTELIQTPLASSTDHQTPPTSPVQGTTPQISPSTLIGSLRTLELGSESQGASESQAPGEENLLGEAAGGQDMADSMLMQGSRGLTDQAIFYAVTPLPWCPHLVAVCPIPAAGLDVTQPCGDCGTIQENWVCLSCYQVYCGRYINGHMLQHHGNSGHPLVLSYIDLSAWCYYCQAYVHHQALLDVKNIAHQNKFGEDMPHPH

[5] = biological target: T3, Polyunsaturated fatty acid 5-lipoxygenase (Homo sapiens, UniProt P09917); assay: Inhibition of recombinant human 5-LO expressed in baculovirus infected sf9 cells using arachidonic acid as substrate preincubated for 10 mins followed by substrate addition measured every minute for 20 mins by H2DCFDA dye based fluorescence assay
T3 sequence (P09917 whole entry): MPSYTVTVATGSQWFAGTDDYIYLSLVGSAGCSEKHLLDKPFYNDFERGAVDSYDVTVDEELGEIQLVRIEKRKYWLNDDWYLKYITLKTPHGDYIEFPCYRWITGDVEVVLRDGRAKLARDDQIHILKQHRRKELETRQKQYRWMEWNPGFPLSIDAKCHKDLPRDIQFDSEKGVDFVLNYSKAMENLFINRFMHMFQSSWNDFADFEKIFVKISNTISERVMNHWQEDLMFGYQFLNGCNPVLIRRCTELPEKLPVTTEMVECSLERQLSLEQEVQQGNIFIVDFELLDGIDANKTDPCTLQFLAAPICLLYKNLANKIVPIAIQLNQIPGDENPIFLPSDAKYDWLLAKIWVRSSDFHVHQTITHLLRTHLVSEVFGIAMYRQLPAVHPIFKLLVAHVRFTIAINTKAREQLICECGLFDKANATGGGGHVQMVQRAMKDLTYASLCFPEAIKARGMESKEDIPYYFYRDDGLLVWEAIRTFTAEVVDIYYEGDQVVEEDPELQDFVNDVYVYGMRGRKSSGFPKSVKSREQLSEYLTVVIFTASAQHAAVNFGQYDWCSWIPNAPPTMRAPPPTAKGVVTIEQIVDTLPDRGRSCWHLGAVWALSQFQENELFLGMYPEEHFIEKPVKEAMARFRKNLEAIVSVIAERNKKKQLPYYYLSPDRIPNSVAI

Carbonic anhydrase 2 = Carbonic anhydrase 2 (Homo sapiens, UniProt P00918); assay: Inhibition of human carbonic anhydrase-2 using p-nitrophenylacetate as substrate preincubated for 10 mins followed by substrate addition
[6] = biological target: COP9 signalosome complex subunit 5 (Homo sapiens, UniProt Q92905); assay: Inhibition of CSN5 (unknown origin) using SCFskp2-Nedd8OG as substrate after 1 hr by fluorescence polarization assay
Sequence of COP9 signalosome complex subunit 5 (Q92905 whole entry, one chain of several): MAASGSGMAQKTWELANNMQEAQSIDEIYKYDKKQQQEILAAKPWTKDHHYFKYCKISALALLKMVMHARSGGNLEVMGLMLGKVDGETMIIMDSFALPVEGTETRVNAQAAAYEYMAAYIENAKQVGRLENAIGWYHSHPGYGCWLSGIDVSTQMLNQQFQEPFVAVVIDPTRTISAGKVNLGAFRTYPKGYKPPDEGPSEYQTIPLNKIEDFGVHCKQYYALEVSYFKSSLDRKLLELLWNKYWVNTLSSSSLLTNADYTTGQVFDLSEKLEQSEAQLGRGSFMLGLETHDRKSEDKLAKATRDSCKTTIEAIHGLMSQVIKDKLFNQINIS

HCT-116 = assay: cells; conditions: Homo sapiens, HCT-116, 72 h
Description: Antiproliferative activity against human HCT116 cells after 72 hrs by Cell Titer-Glo assay

STAM-binding protein = biological target: T4, STAM-binding protein (Homo sapiens, UniProt O95630); assay: Inhibition of AMSH (unknown origin) using DiUbK63TAMRA as substrate by fluorescence assay
T4 sequence (O95630 whole entry): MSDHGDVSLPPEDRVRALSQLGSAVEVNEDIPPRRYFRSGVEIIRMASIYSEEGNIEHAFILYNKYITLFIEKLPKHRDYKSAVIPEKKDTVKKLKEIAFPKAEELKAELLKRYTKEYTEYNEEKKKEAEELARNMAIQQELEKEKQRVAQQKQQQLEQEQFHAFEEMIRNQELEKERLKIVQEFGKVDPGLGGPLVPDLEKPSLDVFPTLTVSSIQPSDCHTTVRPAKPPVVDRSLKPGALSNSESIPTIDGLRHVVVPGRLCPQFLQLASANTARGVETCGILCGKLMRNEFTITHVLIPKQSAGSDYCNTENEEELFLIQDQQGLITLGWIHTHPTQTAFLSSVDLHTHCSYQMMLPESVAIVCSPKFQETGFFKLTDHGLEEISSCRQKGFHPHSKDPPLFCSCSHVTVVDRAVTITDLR

[7] = biological target: Lys-63-specific deubiquitinase BRCC36 (Homo sapiens) (UniProt P46736); assay: Inhibition of BRCC36 (unknown origin) using DiUbK63TAMRA as substrate by fluorescence assay
Sequence of Lys-63-specific deubiquitinase BRCC36 (Homo sapiens) (P46736 whole entry): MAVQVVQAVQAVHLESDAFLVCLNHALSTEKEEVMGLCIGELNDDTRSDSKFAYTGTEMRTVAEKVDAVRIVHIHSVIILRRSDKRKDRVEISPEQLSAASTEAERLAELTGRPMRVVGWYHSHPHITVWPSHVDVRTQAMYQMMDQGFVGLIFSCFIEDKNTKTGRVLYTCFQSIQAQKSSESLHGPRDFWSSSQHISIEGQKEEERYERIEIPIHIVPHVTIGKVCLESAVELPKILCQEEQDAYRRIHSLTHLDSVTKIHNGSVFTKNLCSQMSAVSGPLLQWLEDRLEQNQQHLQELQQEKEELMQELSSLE

[8] = biological target: T1, 26S proteasome non-ATPase regulatory subunit 14; conditions: 200 uM
Description: Inhibition of 26S proteasome regulatory subunit RPN11 deubiquitinating activity in human erythrocytes at 200 uM using Ub4-pepOG protein substrate preincubated for 1 hr followed by substrate addition measured after 80 mins by fluorescence polarization assay relative to control

Structure (SMILES)	IC50 (A549) [µM]	solubility [1]	IC50 [2] [µM]	IC50 [3] [µM]	IC50 (Histone deacetylase 1) [µM]	IC50 [4] [µM]	IC50 [5] [µM]	IC50 (Carbonic anhydrase 2) [µM]	IC50 [6] [µM]	IC50 (HCT-116) [µM]	IC50 (STAM-binding protein) [µM]	inhibition [7]	inhibition [8] [%]	IC50 (HEK-293T) [µM]
O=C(NCCc1nccs1)c1cnc2c(SSc3cccc4cc(C(=O)NCCc5nccs5)cnc34)cccc2c1	3.8	Soluble	–	–	–	–	–	–	–	–	–	–	–	2.1
Cc1ccc(S)c2ncccc12	–	–	> 200	2.5	> 200	> 200	> 200	> 200	2.9	3.4	–	–	–	–
Cc1ccnc2c(S)cccc12	–	–	> 200	5.7	> 200	> 200	> 200	> 200	25.1	> 10	–	–	–	–
CC(C)C[C@H](NC(=O)[C@H](Cc1ccccc1)NC(=O)c1cnccn1)B(O)O [BORTEZOMIB]	0.092	–	–	–	–	–	–	–	–	–	–	–	–	0.012
O=C(Nc1nccs1)c1cnc2c(SSc3cccc4cc(C(=O)Nc5nccs5)cnc34)cccc2c1	5.8	Soluble	–	–	–	–	–	–	20	–	4.7	–	–	6.4

Continued, in another order:

IC50 (A549) [µM]	solubility [1]	IC50 [2] [µM]	IC50 [3] [µM]	IC50 (Histone deacetylase 1) [µM]	IC50 [4] [µM]	IC50 [5] [µM]	IC50 (Carbonic anhydrase 2) [µM]	IC50 [6] [µM]	IC50 (HCT-116) [µM]	IC50 (STAM-binding protein) [µM]	inhibition [7]	inhibition [8] [%]	Structure (SMILES)	IC50 (HEK-293T) [µM]
–	–	> 200	0.9	> 50	> 50	> 200	> 100	–	–	–	–	–	Cc1cc(S)c2ncccc2c1	–
–	–	> 200	1.6	> 50	> 200	> 200	> 40	7.1	2.6	–	–	–	Cc1cnc2c(S)cccc2c1	–
–	–	> 200	2.5 to 2.8	> 200	> 200	> 200	> 200	10.3	1.6	–	Active	100	Sc1cccc2cccnc12	–
